How the values were obtained:
Aphis gossypii = assay: Pesticidal effect against Aphis gossypii (cucumber leaf disk); format: in vivo; conditions: Aphis gossypii first instar larvae, spread, 3 days, 25° C.
Text: A leaf disk having a diameter of 2.0 cmφ was cut out from a cucumber grown in a pot and was placed in a 5.0 cm-Schale. A test solution, which had been adjusted to a predetermined concentration by the addition of a 50% aqueous acetone solution (0.05% Tween 20 added) was spread over the […] leaf disk. After air dried, ten (10) of larvae of Aphis gossypii at the first instar were released in the Schale. Thereafter, the Schale was lidded and was allowed to stand in a temperature-controlled room (light period 16 hr-dark period 8 hr) (25° C.).
(§1) The death rate of larvae was calculated by the following equation. Death rate (%)={number of dead larvae/(number of survived larvae+number of dead larvae)}×100 The concentrations which gave the death rate of 90% or more are shown in Table 2.

Pseudococcus comstocki = assay: Pesticidal effect against Pseudococcus comstocki (Phaseolus vulgaris leaf disk); format: in vivo; conditions: Pseudococcus comstocki first instar larvae, spread, 3 days, 25° C.
Description: A leaf disk having a diameter of 2.8 cmφ was cut out from a leaf of Phaseolus vulgaris and was placed on an agar in a plastic cup, into which ten (10) of larvae of Pseudococcus comstocki at the first instar were released. A test solution, which had been adjusted to a predetermined concentration by the addition of a 50% aqueous acetone solution (0.05% Tween 20 added) was spread. After air dried, it was allowed to stand in a temperature-controlled room (light period 16 hr-dark period 8 hr) (25° C.).
as §1

Myzus persicae = assay: Pesticidal effect against Myzus persicae (cabbage leaf disk); format: in vivo; conditions: Myzus persicae first instar larvae, spread, 3 days, 25° C.
Text: A leaf disk having a diameter of 2.8 cmφ was cut out from a cabbage grown in a pot and was placed in a 5.0 cm-Schale. Four adult aphids of Myzus persicae were released in the Schale. One day after the release of the adult aphids, the adult aphids were removed. The number of larvae at the first instar born in the leaf disk was adjusted to 10, and a test solution, which had been adjusted to a predetermined concentration by the addition of a 50% aqueous acetone solution (0.05% Tween 20 added) was spread over the cabbage leaf disk. The cabbage leaf disk was then air dried. Thereafter, the Schale was lidded and was allowed to stand in a temperature-controlled room (light period 16 hr-dark period 8 hr) (25° C.).
as §1

[1] = test system: Plutella xylostella L larvae; conditions: in vivo; cited from earlier work
[2] = test system: larvae of Helicoverpa zea; conditions: in vivo; cited from earlier work
Tenebrio molitor L = conditions: in vivo; cited from earlier work

Compound: CC1(COC(=O)C2CC2)C2CC(=O)[C@@]3(C)Oc4cc(-c5cccnc5)oc(=O)c4[C@H](O)C3[C@@]2(C)CC[C@@H]1OC(=O)C1CC1 (stereo partly drawn) [Compound 1]
- Concentration (ppm) for the death rate of 90% or more, Test Example 2 (Aphis gossypii): 0.078 ppm
- Concentration (ppm) for the death rate of 90% or more, Test Example 3 (Pseudococcus comstocki): 0.156 ppm
- Concentration (ppm) for the death rate of 90% or more, Test Example 1 (Myzus persicae): 0.010 ppm

Compound: CC1(COC(=O)C2CC2)C2CC[C@@]3(C)Oc4cc(-c5cccnc5)oc(=O)c4[C@H](O)C3[C@@]2(C)CC[C@@H]1OC(=O)C1CC1 (stereo partly drawn) [Compound 2]
- Concentration (ppm) for the death rate of 90% or more, Test Example 2 (Aphis gossypii): 0.078 ppm
- Concentration (ppm) for the death rate of 90% or more, Test Example 3 (Pseudococcus comstocki): 0.625 ppm
- Concentration (ppm) for the death rate of 90% or more, Test Example 1 (Myzus persicae): 0.039 ppm

Compound: Pyripyropene A
- insecticidal activity against Plutella xylostella L larvae [1]: insecticidal activity
- insecticidal activity against larvae of Helicoverpa zea [2]: insecticidal activity
- insecticidal activity against Tenebrio molitor L (Tenebrio molitor L): insecticidal activity

Source: patent US8202890B2, “Pest control agent” (Meiji Seika Pharma Co., Ltd., priority 2006, dated 2012)
